From ChEMBL document CHEMBL1201862, “PubChem BioAssay data set” (2004)
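Five concentrations, 48 hours, 96-well plates. Here, GI50 denotes the concentration required for 50% inhibition of growth.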 Active and inactive are the calls of the source. Rule as the data show it: active = GI50 up to about 1.1 µM and inactive = higher.

Experiments:
Assay in all cases: inhibition of tumour cell growth, NCI panel, 48 h
[1] = system: A549
[2] = system: ACHN
[3] = system: CAKI-1
[4] = system: COLO 205
[5] = system: DU-145
[6] = system: HCC 2998
[7] = system: HL-60
[8] = system: HT-29
[9] = system: NCI-H226
[10] = system: NCI-H23
[11] = system: NCI-H460
[12] = system: NCI-H522
[13] = system: NCI/ADR-RES
[14] = system: OVCAR-5
[15] = system: SF-295
[16] = system: SK-MEL-2
[17] = system: SK-OV-3
[18] = system: SNB-19
[19] = system: SNB-75
[20] = system: TK-10

Measured: GI50

c1ccc(COc2nc3cc(C45CC6CC(CC(C6)C4)C5)ccc3[nH]2)cc1
inactive: [1] 16.5 µM | [2] 14.6 µM | [3] 39.7 µM | [4] 4.01 µM | [5] 20.1 µM | [6] 9.68 µM | [7] 9.38 µM | [8] 3.53 µM | [9] 12 µM | [10] 6.3 µM | [11] 9.2 µM | [12] 3.42 µM | [13] 7.45 µM | [14] 41 µM | [15] 6.7 µM | [16] 11.2 µM | [17] 29.8 µM | [18] 24.8 µM | [19] 29.6 µM | [20] 4.65 µM

CC1=C(C(=O)OCCc2ccc([N+](=O)[O-])cc2)C(c2cccc([N+](=O)[O-])c2)C(C(=O)OC(C)C)=C(C)N1 (stereo not given)
inactive: [1] 4.99 µM | [2] 4.82 µM | [3] 4.68 µM | [4] 5.81 µM | [5] > 100 µM | [6] 75.9 µM | [7] 3.52 µM | [8] 4.94 µM | [9] 2.86 µM | [10] 4.3 µM | [11] 3.72 µM | [12] 1.87 µM | [13] 3.33 µM | [14] > 100 µM | [15] 4.19 µM | [16] 7.62 µM | [17] > 100 µM | [18] 12.7 µM | [19] 5.69 µM | [20] 44.4 µM

C/C(=C\c1csc(C)n1)[C@@H]1C[C@@H]2O[C@@H]2CCC[C@H](C)[C@H](O)[C@@H](C)C(=O)C(C)(C)[C@@H](O)CC(=O)O1.C/C(=C\c1csc(C)n1)[C@@H]1C[C@@H]2O[C@]2(C)CCC[C@H](C)[C@H](O)[C@@H](C)C(=O)C(C)(C)[C@@H](O)CC(=O)O1
active: [1] 0.0039 µM | [2] 0.0179 µM | [3] 0.0101 µM | [4] 0.00299 µM | [5] 0.00604 µM | [6] 0.00403 µM | [7] 0.00475 µM | [8] 0.00107 µM | [9] 0.0455 µM | [10] 0.00664 µM | [11] 0.00129 µM | [12] 0.00076 µM | [13] 0.0191 µM | [14] 0.108 µM | [15] 0.00567 µM | [16] 0.0246 µM | [17] 0.00971 µM | [18] 0.0191 µM | [19] 0.00384 µM | [20] 0.0439 µM

N#Cc1c(-c2ccc(Cl)cc2)[nH]c(=O)n(C2OC(CO)C(O)C(O)C2O)c1=O (stereo not given)
inactive: [1] > 100 µM | [2] > 100 µM | [3] > 100 µM | [4] > 100 µM | [5] > 100 µM | [6] > 100 µM | [7] > 100 µM | [8] > 100 µM | [9] 46 µM | [10] > 100 µM | [11] > 100 µM | [12] > 100 µM | [13] > 100 µM | [14] > 100 µM | [15] > 100 µM | [16] > 100 µM | [17] > 100 µM | [18] > 100 µM | [19] 43.2 µM | [20] > 100 µM
